Data published in patent US20110152313A1 (MACQUARIE UNIVERSITY, priority 2008, published 2011).

Molecular target: T1, ULK1 (Homo sapiens, UniProt O75385)
T1 sequence (O75385 1-1050): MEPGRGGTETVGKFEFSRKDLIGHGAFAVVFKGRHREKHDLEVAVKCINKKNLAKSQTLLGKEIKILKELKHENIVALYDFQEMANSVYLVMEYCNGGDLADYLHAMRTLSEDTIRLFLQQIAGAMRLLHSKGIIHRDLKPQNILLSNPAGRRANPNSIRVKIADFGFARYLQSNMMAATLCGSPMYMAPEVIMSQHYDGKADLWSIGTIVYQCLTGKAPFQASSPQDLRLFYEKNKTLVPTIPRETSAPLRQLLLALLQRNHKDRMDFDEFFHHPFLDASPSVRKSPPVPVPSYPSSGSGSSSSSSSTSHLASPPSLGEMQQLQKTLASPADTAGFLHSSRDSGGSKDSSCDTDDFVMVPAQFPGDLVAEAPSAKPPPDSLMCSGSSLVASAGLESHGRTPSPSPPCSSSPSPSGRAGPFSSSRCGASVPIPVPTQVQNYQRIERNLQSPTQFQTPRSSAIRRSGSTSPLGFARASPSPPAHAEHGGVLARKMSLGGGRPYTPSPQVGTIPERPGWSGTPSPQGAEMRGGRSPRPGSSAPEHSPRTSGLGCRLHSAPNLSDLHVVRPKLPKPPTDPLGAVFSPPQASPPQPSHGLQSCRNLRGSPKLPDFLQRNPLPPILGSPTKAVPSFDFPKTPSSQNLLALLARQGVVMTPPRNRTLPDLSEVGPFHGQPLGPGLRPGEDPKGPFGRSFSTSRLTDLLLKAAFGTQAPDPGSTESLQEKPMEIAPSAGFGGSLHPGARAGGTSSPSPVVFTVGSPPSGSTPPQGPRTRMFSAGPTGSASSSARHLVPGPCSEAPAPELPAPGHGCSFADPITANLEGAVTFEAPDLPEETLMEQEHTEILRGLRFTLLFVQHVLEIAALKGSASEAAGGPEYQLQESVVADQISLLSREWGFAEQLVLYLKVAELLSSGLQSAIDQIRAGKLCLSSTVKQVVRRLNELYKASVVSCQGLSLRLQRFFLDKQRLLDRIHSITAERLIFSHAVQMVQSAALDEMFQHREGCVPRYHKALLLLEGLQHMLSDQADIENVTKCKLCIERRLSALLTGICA
Assay: kinase binding constant, 11-point dose response (T7 phage, qPCR)
Conditions: >30 = no inhibition at highest concentration tested

Nc1nc2c(-c3ccccn3)nccc2[nH]1 [drawing 35, 4-(pyrid-2-yl)-1H-imidazo[4,5-c]pyridin-2-amine]
Kd: 24 µM
